Source: patent US20250154173A1 (Merck Sharp & Dohme LLC, priority 2023, published 2025)

What follows are molecules tested against T1, GST-RIPK1 (recombinant GST-RIPK1 kinase domain (residues 1-327)) (Homo sapiens, UniProt Q13546) (assay: RIPK1-ADP-Glo Enzymatic Assay). Conditions: ten-point titration, top compound concentration of 100000 nM; 25 nM GST-RIPK1, 300 μM ATP, 3 μM dephosphorylated-MBP; 30 min pre-incubation, 150 min reaction.
T1 construct: recombinant GST-RIPK1 kinase domain (residues 1-327) enzyme produced from baculovirus-transfected Sf21 cells; host or cells: baculovirus-transfected Sf21 insect cells
T1 sequence (Q13546 1-327): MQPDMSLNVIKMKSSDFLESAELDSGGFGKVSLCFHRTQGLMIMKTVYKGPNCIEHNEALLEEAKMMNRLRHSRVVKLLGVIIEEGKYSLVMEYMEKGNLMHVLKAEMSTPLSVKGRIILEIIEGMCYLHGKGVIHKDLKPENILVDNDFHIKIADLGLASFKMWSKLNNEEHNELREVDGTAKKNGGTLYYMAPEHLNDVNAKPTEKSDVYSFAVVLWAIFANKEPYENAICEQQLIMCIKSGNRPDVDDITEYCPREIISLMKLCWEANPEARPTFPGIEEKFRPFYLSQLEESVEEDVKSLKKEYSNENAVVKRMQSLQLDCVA
Assay type: biochemical
How it was run: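 GST-RIPK1 kinase domain (residues 1-327, Sf21-expressed), 25 nM, preincubated 30 min with compound, then reacted 150 min with 300 μM ATP and 3 μM dephosphorylated MBP in pH 7.3 Hepes buffer, 1% DMSO. ADP measured by ADP-Glo luminescence; EC50 from ten-point titration (top 100000 nM), four-parameter fit.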

EC50 [nM]	Structure (SMILES)
8	Cc1cc2c(O[C@H]3C[C@@]4(C3)O[C@@H]3CC[C@@H](c5cc(F)cc(F)c5)N3C4=O)ncnc2s1 [Example 9.33, (1r,3R,5′S,7a′R)-5′-(3,5-difluorophenyl)-3-[(6-methylthieno[2,3-d]pyrimidin-4-yl)oxy]tetrahydro-3′H-spiro[cyclobutane-1,2′-pyrrolo[2,1-b][1,3]oxazol]-3′-one]
19	O=C1N2[C@@H](CC[C@H]2c2ccc(F)cc2)O[C@]12C[C@H](Oc1nccc3nccn13)C2 [Example 9.34, (1r,3R,5′S,7a′R)-5′-(4-fluorophenyl)-3-[(imidazo[1,2-c]pyrimidin-5-yl)oxy]tetrahydro-3′H-spiro[cyclobutane-1,2′-pyrrolo[2,1-b][1,3]oxazol]-3′-one]
16	O=C1N2[C@@H](CC[C@H]2c2cc(F)cc(F)c2)O[C@]12C[C@H](Oc1cccnc1Cl)C2 [Example 9.36, (5′S,7a′R)-3-[(2-chloropyridin-3-yl)oxy]-5′-(3,5-difluorophenyl)tetrahydro-3′H-spiro[cyclobutane-1,2′-pyrrolo[2,1-b][1,3]oxazol]-3′-one]
19	O=C1N2[C@@H](CC[C@H]2c2cc(F)cc(F)c2)OC12CC(Oc1ccc(F)cn1)C2 (stereo partly drawn) [Example 9.37, (5′S,7a′R)-5′-(3,5-difluorophenyl)-3-[(5-fluoropyridin-2-yl)oxy]tetrahydro-3′H-spiro[cyclobutane-1,2′-pyrrolo[2,1-b][1,3]oxazol]-3′-one]
29	O=C1N2[C@@H](CC[C@H]2c2cc(F)cc(F)c2)OC12CC(Oc1ncccc1F)C2 (stereo partly drawn) [Example 9.38, (5′S,7a′R)-5′-(3,5-difluorophenyl)-3-[(3-fluoropyridin-2-yl)oxy]tetrahydro-3′H-spiro[cyclobutane-1,2′-pyrrolo[2,1-b][1,3]oxazol]-3′-one]
47	O=C1N2[C@@H](CC[C@H]2c2cc(F)cc(F)c2)OC12CC(Oc1ncccc1F)C2 (stereo partly drawn) [Example 9.39, (5′S,7a′R)-5′-(3,5-difluorophenyl)-3-[(3-fluoropyridin-2-yl)oxy]tetrahydro-3′H-spiro[cyclobutane-1,2′-pyrrolo[2,1-b][1,3]oxazol]-3′-one]
21	N#Cc1cc(O[C@H]2C[C@@]3(C2)O[C@@H]2CC[C@@H](c4cnccn4)N2C3=O)ncn1 [Example 9.42, 6-(((5′S,7a′R)-3′-oxo-5′-(pyrazin-2-yl)tetrahydro-3′H-spiro[cyclobutane-1,2′-pyrrolo[2,1-b]oxazol]-3-yl)oxy)pyrimidine-4-carbonitrile]
353	N#Cc1cc(O[C@H]2C[C@]3(C2)O[C@@H]2CC[C@@H](c4ccccc4F)N2C3=O)ncn1 [Example 9.43, 6-{[(5′S,7a′R)-5′-(2-fluorophenyl)-3′-oxotetrahydro-3′H-spiro[cyclobutane-1,2′-pyrrolo[2,1-b][1,3]oxazol]-3-yl]oxy}pyrimidine-4-carbonitrile]
28	N#Cc1cc(F)cc([C@@H]2CC[C@H]3O[C@]4(C[C@H](Oc5cc(C#N)ncn5)C4)C(=O)N32)c1 [Example 9.44, 6-(((5′S,7a′R)-5′-(3-cyano-5-fluorophenyl)-3′-oxotetrahydro-3′H-spiro[cyclobutane-1,2′-pyrrolo[2,1-b]oxazol]-3-yl)oxy)pyrimidine-4-carbonitrile]
233	O=C1N2[C@@H](CC[C@H]2c2cnccn2)O[C@]12C[C@@H](Oc1ncnn3cccc13)C2 [Example 9.45, (1s,3S,5′S,7a′R)-5′-(pyrazin-2-yl)-3-(pyrrolo[2,1-f][1,2,4]triazin-4-yloxy)tetrahydro-3′H-spiro[cyclobutane-1,2′-pyrrolo[2,1-b]oxazol]-3′-one]
15	O=C1N2[C@@H](CC[C@H]2c2cnccn2)O[C@]12C[C@H](Oc1ncnn3cccc13)C2 [Example 9.46, (1r,3R,5′S,7a′R)-5′-(pyrazin-2-yl)-3-(pyrrolo[2,1-f][1,2,4]triazin-4-yloxy)tetrahydro-3′H-spiro[cyclobutane-1,2′-pyrrolo[2,1-b]oxazol]-3′-one]
24	N#Cc1cc(O[C@H]2C[C@@]3(C2)O[C@@H]2CC[C@@H](c4ccc(F)cn4)N2C3=O)ncn1 [Example 9.47, 6-{[(5′S,7a′R)-5′-(5-fluoropyridin-2-yl)-3′-oxotetrahydro-3′H-spiro[cyclobutane-1,2′-pyrrolo[2,1-b][1,3]oxazol]-3-yl]oxy}pyrimidine-4-carbonitrile]
20	O=C1N2[C@@H](CC[C@H]2c2ccc(F)cc2)O[C@]12C[C@H](Oc1cncc(F)c1)C2 [Example 9.48, (1r,3R,5′S,7a′R)-5′-(4-fluorophenyl)-3-[(5-fluoropyridin-3-yl)oxy]tetrahydro-3′H-spiro[cyclobutane-1,2′-pyrrolo[2,1-b][1,3]oxazol]-3′-one]
330	N#Cc1cc(O[C@H]2C[C@@]3(C2)O[C@H]2CC[C@H](c4cnccn4)N2C3=O)ncn1 [Example 9.50, 6-(((5′R,7a′S)-3′-oxo-5′-(pyrazin-2-yl)tetrahydro-3′H-spiro[cyclobutane-1,2′-pyrrolo[2,1-b]oxazol]-3-yl)oxy)pyrimidine-4-carbonitrile]
56	O=C1N2[C@H](CC[C@H]2c2cnccn2)O[C@]12C[C@@H](Oc1ncnn3cccc13)C2 [Example 9.51, (1s,3R,5′R,7a′S)-5′-(pyrazin-2-yl)-3-(pyrrolo[2,1-f][1,2,4]triazin-4-yloxy)tetrahydro-3′H-spiro[cyclobutane-1,2′-pyrrolo[2,1-b]oxazol]-3′-one]
50	Cc1nnc(-c2cc(O[C@H]3C[C@@]4(C3)O[C@@H]3CC[C@@H](c5cc(F)cc(F)c5)N3C4=O)ncn2)o1 [Example 9.53, (5′S,7a′R)-5′-(3,5-difluorophenyl)-3-((6-(5-methyl-1,3,4-oxadiazol-2-yl)pyrimidin-4-yl)oxy)tetrahydro-3′H-spiro[cyclobutane-1,2′-pyrrolo[2,1-b]oxazol]-3′-one]
24	O=C1N2[C@@H](CC[C@H]2c2cc(F)cc(F)c2)O[C@]12C[C@H](Oc1cc(-c3cnn(C(F)F)c3)ncn1)C2 [Example 9.54, (5′S,7a′R)-3-((6-(1-(difluoromethyl)-1H-pyrazol-4-yl)pyrimidin-4-yl)oxy)-5′-(3,5-difluorophenyl)tetrahydro-3′H-spiro[cyclobutane-1,2′-pyrrolo[2,1-b]oxazol]-3′-one]
13	Cn1nccc1-c1cc(O[C@H]2C[C@@]3(C2)O[C@@H]2CC[C@@H](c4cc(F)cc(F)c4)N2C3=O)ncn1 [Example 9.55, (5′S,7a′R)-5′-(3,5-difluorophenyl)-3-((6-(1-methyl-1H-pyrazol-5-yl)pyrimidin-4-yl)oxy)tetrahydro-3′H-spiro[cyclobutane-1,2′-pyrrolo[2,1-b]oxazol]-3′-one]
18	O=C1N2[C@@H](CC[C@H]2c2cc(F)cc(F)c2)O[C@]12C[C@H](Oc1cc(-n3cc(C(F)F)cn3)ncn1)C2 [Example 9.56, (5′S,7a′R)-3-((6-(4-(difluoromethyl)-1H-pyrazol-1-yl)pyrimidin-4-yl)oxy)-5′-(3,5-difluorophenyl)tetrahydro-3′H-spiro[cyclobutane-1,2′-pyrrolo[2,1-b]oxazol]-3′-one]
69	N#Cc1ccnc(O[C@H]2C[C@@]3(C2)O[C@@H]2CC[C@@H](c4cc(F)cc(F)c4)N2C3=O)n1 [Example 9.57, 2-(((1r,3R,5′S,7a′R)-5′-(3,5-difluorophenyl)-3′-oxotetrahydro-3′H-spiro[cyclobutane-1,2′-pyrrolo[2,1-b]oxazol]-3-yl)oxy)pyrimidine-4-carbonitrile]
467	O=C1N2[C@@H](CC[C@H]2c2ccc(F)cc2)OC12CC(Oc1nccn3ccnc13)C2 (stereo partly drawn) [Example 9.58, (5′S,7a′R)-5′-(4-fluorophenyl)-3-[(imidazo[1,2-a]pyrazin-8-yl)oxy]tetrahydro-3′H-spiro[cyclobutane-1,2′-pyrrolo[2,1-b][1,3]oxazol]-3′-one]
71.9	O=C1N2[C@@H](CC[C@H]2c2ccc(F)cc2)OC12CC(Oc1nccn3ncnc13)C2 (stereo partly drawn) [Example 9.59, (5′S,7a′R)-5′-(4-fluorophenyl)-3-[([1,2,4]triazolo[1,5-a]pyrazin-8-yl)oxy]tetrahydro-3′H-spiro[cyclobutane-1,2′-pyrrolo[2,1-b][1,3]oxazol]-3′-one]
188	O=C1N2[C@@H](CC[C@H]2c2ccc(F)cc2)OC12CC(OCc1cccnc1)C2 (stereo partly drawn) [Example 9.60, (5′S,7a′R)-5′-(4-fluorophenyl)-3-[(pyridin-3-yl)methoxy]tetrahydro-3′H-spiro[cyclobutane-1,2′-pyrrolo[2,1-b][1,3]oxazol]-3′-one]
104	O=C1N2[C@@H](CC[C@H]2c2ccc(F)cc2)OC12CC(OCc1ccncc1)C2 (stereo partly drawn) [Example 9.61, (5′S,7a′R)-5′-(4-fluorophenyl)-3-[(pyridin-4-yl)methoxy]tetrahydro-3′H-spiro[cyclobutane-1,2′-pyrrolo[2,1-b][1,3]oxazol]-3′-one]

Structure (SMILES)	EC50 [nM]
N#Cc1cncc(O[C@H]2C[C@@]3(C2)O[C@@H]2CC[C@@H](c4ccc(F)cc4)N2C3=O)c1 [Example 9.49, 5-{[(1r,3R,5′S,7a′R)-5′-(4-fluorophenyl)-3′-oxotetrahydro-3′H-spiro[cyclobutane-1,2′-pyrrolo[2,1-b][1,3]oxazol]-3-yl]oxy}pyridine-3-carbonitrile]	15
